Assays:
Type in all cases: in vivo
Veronica = assay: Pre-emergence test/greenhouse, Veronica; details: 504 h, 500 g of ai./ha, after three weeks, read-out: degree of damage, Veronica
Procedure: (§1) Solvent: 5 parts by weight of acetone
(§2) Emulsifier: 1 part by weight of alkylaryl polyglycol ether
(§3) To produce a suitable preparation of active compound, 1 part by weight of active compound is mixed with the stated amount of solvent, the stated amount of emulsifier is added and the concentrate is diluted with water to the desired concentration.
(§4) Seeds of the test plants are sown in normal soil. After about 24 hours, the soil is sprayed with the preparation of active compound such that the particular amount of active compound desired is applied per unit area. The concentration of the spray liquor is chosen so that the particular amount of active compound desired is applied in 1000 liters of water per hectare.
(§5) After three weeks, the degree of damage to the plants is rated in % damage in comparison to the development of the untreated control.
(§6) 0%=no effect (like untreated control)

Digitaria = assay: Pre-emergence test/greenhouse, Digitaria; details: 500 g of ai./ha, after three weeks
Procedure: as §1, §2, §3, §4, §5, §6

Solanum = assay: Pre-emergence test/greenhouse, Solanum; details: 500 g of ai./ha, after three weeks
Procedure: as §1, §2, §3, §4, §5, §6

Viola = assay: Pre-emergence test/greenhouse, Viola; details: after three weeks
Procedure: as §1, §2, §3, §4, §5, §6

barley = assay: Pre-emergence test/greenhouse, barley; details: 500 g of ai./ha, after three weeks
Procedure: as §1, §2, §3, §4, §5, §6

Setaria = assay: Pre-emergence test/greenhouse, Setaria; details: 500 g of ai./ha, after three weeks
Procedure: as §1, §2, §3, §4, §5, §6

Cyperus = assay: Pre-emergence test/greenhouse, Cyperus; details: 500 g of ai./ha, after three weeks
Procedure: as §1, §2, §3, §4, §5, §6

Matricaria = assay: Pre-emergence test/greenhouse, Matricaria; details: 500 g of ai./ha, after three weeks
Procedure: as §1, §2, §3, §4, §5, §6

cotton = assay: Pre-emergence test/greenhouse, cotton; details: 500 g of ai./ha, after three weeks
Procedure: as §1, §2, §3, §4, §5, §6

Datura = assay: Pre-emergence test/greenhouse, Datura; details: 500 g of ai./ha, after three weeks
Procedure: as §1, §2, §3, §4, §5, §6

soya = assay: Pre-emergence test/greenhouse, soya; details: 500 g of ai./ha, after three weeks
Procedure: as §1, §2, §3, §4, §5, §6

Lolium = assay: Pre-emergence test/greenhouse, Lolium; details: 500 g of ai./ha, after three weeks
Procedure: as §1, §2, §3, §4, §5, §6

CCC(CCc1sccc1Br)Nc1nc(N)nc(C(C)(C)F)n1 (centres unmarked) [drawing 240]
pest or weed control at 500 g/ha (Veronica): 100%

CCC(CCc1sccc1Br)Nc1nc(N)nc(C(C)F)n1 (centres unmarked) [drawing 241]
degree of damage, Digitaria (Digitaria): 100% | pest or weed control at 500 g/ha (Veronica): 100% | degree of damage, Solanum (Solanum): 100%

CCC(CCc1sccc1Br)Nc1nc(NC(C)=O)nc(C(C)F)n1 (centres unmarked) [drawing 242]
pest or weed control at 500 g/ha (Veronica): 100% | degree of damage, Solanum (Solanum): 100%

CCC(CCc1cc(C)sc1C)Nc1nc(N)nc(C(C)F)n1 (centres unmarked) [drawing 243]
degree of damage, Digitaria (Digitaria): 100% | pest or weed control at 500 g/ha (Veronica): 100% | degree of damage, Solanum (Solanum): 100%

CCC(CCc1cc(C)sc1C)Nc1nc(NC(C)=O)nc(C(C)(C)F)n1 (centres unmarked) [drawing 244]
pest or weed control at 500 g/ha (Veronica): 100%

CC(CCCc1cccs1)Nc1nc(N)nc(C(C)(C)F)n1 (centres unmarked) [drawing 245]
degree of damage, Viola (Viola; 1000 g of ai./ha): 100%

CCC(CCc1ccc(Br)s1)Nc1nc(N)nc(C(C)F)n1 (centres unmarked) [drawing 246]
degree of damage, Viola (Viola; 500 g of ai./ha): 100%

CCC(CCc1ccc(Br)s1)Nc1nc(N)nc(C(C)(C)F)n1 (centres unmarked) [drawing 247]
degree of damage, Viola (Viola; 500 g of ai./ha): 100%

CCC(CCc1cc(Br)cs1)Nc1nc(NC(C)=O)nc(C(C)F)n1 (centres unmarked) [drawing 248]
degree of damage, barley (barley): 0% | degree of damage, Setaria (Setaria): 95% | degree of damage, Viola (Viola; 500 g of ai./ha): 100%

CCC(CCc1cc(Br)cs1)Nc1nc(NC(C)=O)nc(C(C)(C)F)n1 (centres unmarked) [drawing 249]
degree of damage, Setaria (Setaria): 95% | degree of damage, Viola (Viola; 500 g of ai./ha): 100%

CCC(CCc1sccc1Br)Nc1nc(N)nc(C(C)(C)F)n1 (centres unmarked) [drawing 250]
degree of damage, Cyperus (Cyperus): 100% | degree of damage, Matricaria (Matricaria): 100%

CCC(CCc1sccc1Br)Nc1nc(NC(C)=O)nc(C(C)F)n1 (centres unmarked) [drawing 252]
degree of damage, Matricaria (Matricaria): 100%

CCC(CCc1cc(C)sc1C)Nc1nc(N)nc(C(C)F)n1 (centres unmarked) [drawing 253]
degree of damage, Viola (Viola; 500 g of ai./ha): 100%

CCC(CCc1cc(C)sc1C)Nc1nc(NC(C)=O)nc(C(C)(C)F)n1 (centres unmarked) [drawing 254]
degree of damage, Matricaria (Matricaria): 95% | degree of damage, Viola (Viola; 500 g of ai./ha): 100%

CCC(CCc1sccc1Br)Nc1nc(N)nc(C(C)F)n1 (centres unmarked) [drawing 261]
degree of damage, cotton (cotton): 0% | degree of damage, Datura (Datura): 100%

CCC(CCc1sccc1Br)Nc1nc(NC(C)=O)nc(C(C)F)n1 (centres unmarked) [drawing 262]
degree of damage, cotton (cotton): 0%

CCC(CCc1cc(C)sc1C)Nc1nc(N)nc(C(C)F)n1 (centres unmarked) [drawing 263]
degree of damage, soya (soya): 0%

CCC(CCc1cc(C)sc1C)Nc1nc(NC(C)=O)nc(C(C)(C)F)n1 (centres unmarked) [drawing 264]
degree of damage, Lolium (Lolium): 90%

Source: patent publication US6420313B1, “Thienylalkylamino-1,3,5-triazines and the use thereof as herbicides” (Bayer Aktiengesellschaft, priority 1998, dated 2002)
